Measured values: patent US20260109715A1, “IMIDAZOPYRIDINE DERIVATIVES WITH BICYCLIC STRUCTURE” (PUBLIC UNIVERSITY CORPORATION YOKOHAMA CITY UNIVERSITY, priority 2022, published 2026)

Key:
[1] = target: human SMG1 enzyme (Homo sapiens, UniProt Q96Q15); assay: Measurement of SMG1 kinase activity (ADP-Glo Kinase Assay); type: biochemical; conditions: purified human SMG1 enzyme 5 nM, Upf1 peptide substrate, ATP 4 μM; qAC50 synonymous with IC50; read-out: Test Example 1 ADP-Glo IC50
In short: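 ADP-Glo luminescence readout of ADP made by 5 nM human SMG1 acting on 8 μg/mL Upf1 peptide with 4 μM ATP for 60 min at room temperature, after a 15 min enzyme–compound preincubation (1% DMSO; pH 7.5 HEPES, MnCl2). Activity scaled between DMSO and no-enzyme wells; IC50 by four-parameter logistic regression.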

[2] = tested on: Snhg1 transcript (NMD target gene) in EMT6 murine breast cancer cell line; assay: Measurement of NMD inhibitory activity in cells (increase in Snhg1 transcript, real-time PCR); design: species or system mouse; conditions: Mus musculus, 6 hours treatment, concentration giving 1/2 of maximum Snhg1 fold change of positive control, read-out: Test Example 2 Cell-based Snhg1 EC50
In short: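 EMT6 cells treated with serially diluted compound (2% DMSO final) for 6 h; Snhg1 transcript quantified by real-time PCR (ΔΔCT, Tbp endogenous control, untreated wells set to 1). EC50 taken as concentration giving half the maximum fold change of a known NMD inhibitor positive control.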

[3] = tested on: Snhg1 transcript in tumor tissues of mice subcutaneously implanted with EMT6 murine breast cancer cell line; assay: Evaluation of NMD inhibitory activity in vivo (Snhg1 transcript in EMT6 tumor tissue after oral administration); conditions: 6 hours after administration, BALB/c mice
Procedure: The NMD inhibitory activity of a compound of the present invention or a pharmaceutically acceptable salt thereof in vivo can be measured, for example, by the method described below. Using mice subcutaneously implanted with EMT6 murine breast cancer cell line, tumor tissues 6 hours after oral administration of a test substance are excised, and the increase in Snhg1 transcript is quantified as an indicator of NMD inhibition in the tumor, in the same manner as in the in vitro method.
In this test, NMD inhibitory activity in tumor tissues was evaluated when a test substance was orally administered to mice subcutaneously implanted with EMT6 murine breast cancer cell line. As an indicator of NMD inhibitory activity, the increase in the transcript of Snhg1, an NMD target gene, was quantified. First, BALB/c mice were subcutaneously implanted with EMT6 cells (ATCC), and engraftment was confirmed 7 days later. Six hours after administration of the test substance, mice were euthanized, and the collected tumor tissues were cryopreserved. RNA was extracted from the tumor tissues using the illustra RNAspin Mini RNA Isolation kit (GE Healthcare Life Sciences). After synthesizing cDNA using the High-Capacity cDNA Reverse Transcription Kits (Applied Biosystems, 4368813), the cDNA was mixed with PrimeTime Gene Expression Master Mix (Integrated DNA Technologies) and various probes, and gene expression was quantified by QuantStudio 6 Flex (Thermo Fisher Scientific Inc.). For the probe for the Snhg1 gene, which is an NMD target, Mm.PT.58.44039547 (FAM) (Integrated DNA Technologies) was used, and for the probe for the Gapdh gene, which is an endogenous control, Mm99999915_g2 (VIC-PL) (Applied Biosystems) was used. The relative quantification of Snhg1 transcripts in each sample was calculated by the ΔΔCT method using Gapdh as an endogenous control, and the expression level of Snhg1 in each test substance administration group was calculated by setting the expression level of the Vehicle group (0.5% methylcellulose administration group) to 1.

Sequence of human SMG1 enzyme (Q96Q15 whole entry): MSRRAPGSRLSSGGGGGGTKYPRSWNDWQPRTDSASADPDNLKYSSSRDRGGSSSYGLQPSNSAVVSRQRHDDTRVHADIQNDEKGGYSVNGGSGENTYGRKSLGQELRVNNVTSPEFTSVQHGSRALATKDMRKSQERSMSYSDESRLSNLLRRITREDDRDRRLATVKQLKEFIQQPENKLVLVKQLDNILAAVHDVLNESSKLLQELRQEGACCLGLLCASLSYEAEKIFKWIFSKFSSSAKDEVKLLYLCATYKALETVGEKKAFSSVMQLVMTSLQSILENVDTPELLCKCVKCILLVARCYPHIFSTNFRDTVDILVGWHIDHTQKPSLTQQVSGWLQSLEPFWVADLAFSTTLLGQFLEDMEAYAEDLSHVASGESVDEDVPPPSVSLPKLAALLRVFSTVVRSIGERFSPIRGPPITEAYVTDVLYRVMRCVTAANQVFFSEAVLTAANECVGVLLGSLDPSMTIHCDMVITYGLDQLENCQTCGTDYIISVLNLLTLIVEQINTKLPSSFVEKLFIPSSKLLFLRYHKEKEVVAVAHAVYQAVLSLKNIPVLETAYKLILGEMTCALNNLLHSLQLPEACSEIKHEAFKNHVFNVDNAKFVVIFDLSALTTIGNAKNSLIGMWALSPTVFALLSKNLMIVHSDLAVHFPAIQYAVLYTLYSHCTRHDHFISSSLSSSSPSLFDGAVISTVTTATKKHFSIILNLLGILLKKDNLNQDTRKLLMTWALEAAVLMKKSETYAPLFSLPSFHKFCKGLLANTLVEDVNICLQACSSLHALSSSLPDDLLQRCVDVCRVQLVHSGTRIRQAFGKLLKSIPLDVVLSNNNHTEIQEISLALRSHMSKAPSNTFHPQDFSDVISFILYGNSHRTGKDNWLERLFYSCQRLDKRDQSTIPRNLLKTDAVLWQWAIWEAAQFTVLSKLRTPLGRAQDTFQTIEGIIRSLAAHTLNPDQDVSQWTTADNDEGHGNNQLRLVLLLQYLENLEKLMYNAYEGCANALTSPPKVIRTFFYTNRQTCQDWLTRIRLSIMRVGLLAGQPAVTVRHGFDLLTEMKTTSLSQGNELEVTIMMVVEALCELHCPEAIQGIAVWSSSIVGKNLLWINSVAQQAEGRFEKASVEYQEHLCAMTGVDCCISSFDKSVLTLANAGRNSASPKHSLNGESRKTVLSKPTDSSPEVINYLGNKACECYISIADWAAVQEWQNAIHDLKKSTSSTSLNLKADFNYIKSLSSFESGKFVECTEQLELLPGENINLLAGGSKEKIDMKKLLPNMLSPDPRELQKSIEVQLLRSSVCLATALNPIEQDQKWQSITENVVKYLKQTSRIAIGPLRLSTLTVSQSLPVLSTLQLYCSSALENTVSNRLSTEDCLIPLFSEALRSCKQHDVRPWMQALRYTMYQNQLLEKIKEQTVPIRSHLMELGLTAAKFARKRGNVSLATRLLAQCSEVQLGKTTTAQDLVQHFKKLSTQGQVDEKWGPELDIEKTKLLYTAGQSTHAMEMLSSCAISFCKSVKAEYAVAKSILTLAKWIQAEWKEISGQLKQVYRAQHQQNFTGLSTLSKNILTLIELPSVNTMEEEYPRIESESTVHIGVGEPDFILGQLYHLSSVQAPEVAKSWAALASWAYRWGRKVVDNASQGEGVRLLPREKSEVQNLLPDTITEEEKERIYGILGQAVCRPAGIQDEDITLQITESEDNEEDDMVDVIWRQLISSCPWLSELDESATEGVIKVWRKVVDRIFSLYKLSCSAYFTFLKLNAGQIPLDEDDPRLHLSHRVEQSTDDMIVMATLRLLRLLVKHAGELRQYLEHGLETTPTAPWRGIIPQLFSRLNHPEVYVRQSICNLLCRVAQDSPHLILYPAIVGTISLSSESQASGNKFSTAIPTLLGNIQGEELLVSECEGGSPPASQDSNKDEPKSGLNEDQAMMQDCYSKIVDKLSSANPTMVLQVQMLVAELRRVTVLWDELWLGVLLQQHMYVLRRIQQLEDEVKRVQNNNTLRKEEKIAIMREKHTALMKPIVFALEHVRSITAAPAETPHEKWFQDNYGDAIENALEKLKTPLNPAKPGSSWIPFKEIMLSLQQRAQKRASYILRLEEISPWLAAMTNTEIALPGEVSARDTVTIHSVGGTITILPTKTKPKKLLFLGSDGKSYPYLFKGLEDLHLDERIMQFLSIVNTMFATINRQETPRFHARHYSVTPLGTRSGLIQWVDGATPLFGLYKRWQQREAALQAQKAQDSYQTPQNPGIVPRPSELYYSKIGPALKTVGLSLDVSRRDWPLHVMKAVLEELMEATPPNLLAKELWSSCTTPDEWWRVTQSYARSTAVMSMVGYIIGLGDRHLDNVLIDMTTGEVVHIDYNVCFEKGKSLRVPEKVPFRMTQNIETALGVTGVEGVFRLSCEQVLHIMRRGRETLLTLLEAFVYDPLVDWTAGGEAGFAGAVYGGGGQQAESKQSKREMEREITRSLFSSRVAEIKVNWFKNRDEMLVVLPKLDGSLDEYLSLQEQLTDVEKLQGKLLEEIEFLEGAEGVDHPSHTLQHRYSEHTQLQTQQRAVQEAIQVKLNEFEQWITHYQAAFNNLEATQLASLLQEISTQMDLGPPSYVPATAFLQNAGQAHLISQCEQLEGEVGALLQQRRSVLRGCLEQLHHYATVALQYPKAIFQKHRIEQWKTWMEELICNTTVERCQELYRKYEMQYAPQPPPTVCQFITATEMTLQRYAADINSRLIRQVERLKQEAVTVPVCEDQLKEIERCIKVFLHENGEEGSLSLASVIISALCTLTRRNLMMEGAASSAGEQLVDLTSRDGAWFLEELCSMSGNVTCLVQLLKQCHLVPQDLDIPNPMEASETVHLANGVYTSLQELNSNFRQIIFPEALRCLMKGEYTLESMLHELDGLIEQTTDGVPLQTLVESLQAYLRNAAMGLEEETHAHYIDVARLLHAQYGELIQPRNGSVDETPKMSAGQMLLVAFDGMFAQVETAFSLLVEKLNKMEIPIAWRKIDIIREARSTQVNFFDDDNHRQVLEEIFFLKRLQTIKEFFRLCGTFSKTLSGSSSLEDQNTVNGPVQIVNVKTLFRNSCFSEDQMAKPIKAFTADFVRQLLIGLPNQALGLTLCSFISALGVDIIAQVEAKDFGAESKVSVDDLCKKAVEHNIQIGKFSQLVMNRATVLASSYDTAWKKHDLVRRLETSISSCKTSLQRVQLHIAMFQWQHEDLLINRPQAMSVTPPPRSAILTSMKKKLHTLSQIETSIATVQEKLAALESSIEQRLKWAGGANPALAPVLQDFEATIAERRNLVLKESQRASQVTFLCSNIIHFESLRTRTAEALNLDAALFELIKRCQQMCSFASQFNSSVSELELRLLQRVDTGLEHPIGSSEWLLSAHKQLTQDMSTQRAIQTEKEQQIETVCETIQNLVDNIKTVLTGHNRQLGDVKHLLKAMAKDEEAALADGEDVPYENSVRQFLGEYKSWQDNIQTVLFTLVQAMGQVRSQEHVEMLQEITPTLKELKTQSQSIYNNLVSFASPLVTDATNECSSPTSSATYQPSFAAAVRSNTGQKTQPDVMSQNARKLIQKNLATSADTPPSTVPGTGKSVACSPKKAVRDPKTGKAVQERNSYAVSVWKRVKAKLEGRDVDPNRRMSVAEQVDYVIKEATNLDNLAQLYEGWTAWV

IC50 [1] [nM] | EC50 [2] [nM] | SMILES | Snhg1 fold change ([3]; 25 mg/kg oral) | Snhg1 fold change ([3]; 10 mg/kg oral) | Snhg1 fold change ([3]; 30 mg/kg oral) | Snhg1 fold change ([3]; 50 mg/kg oral) | Snhg1 fold change ([3]; 12.5 mg/kg oral) | Snhg1 fold change ([3]; 100 mg/kg oral)
1.2 | 10 | CCc1nc(Cl)cc2[nH]c(-c3cc4c(-c5c(O)cccc5F)nccc4[nH]c3=O)nc12.CS(=O)(=O)O [Example 137, 3-(6-chloro-4-ethyl-1H-imidazo[4,5-c]pyridin-2-yl)-5-(2-fluoro-6-hydroxyphenyl)-1,6-naphthyridin-2(1H)-one methanesulfonate] | 5.1 |  |  |  |  | 
1.8 | 34 | Cc1nc(Cl)cc2[nH]c(-c3cc4c(-c5c(C6CC6)nn(C(F)F)c5C)nccc4[nH]c3=O)nc12 [Example 91, 3-(6-chloro-4-methyl-1H-imidazo[4,5-c]pyridin-2-yl)-5-[3-cyclopropyl-1-(difluoromethyl)-5-methyl-1H-pyrazol-4-yl]-1,6-naphthyridin-2(1H)-one] |  | 5.9 |  |  |  | 
0.72 | 23 | CS(=O)(=O)O.Cc1nccc2[nH]c(=O)c(-c3nc4c(C5CCOCC5)nc(Cl)cc4[nH]3)cc12 [Example 125, 3-[6-chloro-4-(tetrahydro-2H-pyran-4-yl)-1H-imidazo[4,5-c]pyridin-2-yl]-5-methyl-1,6-naphthyridin-2(1H)-one methanesulfonate] |  | 6.5 |  |  |  | 
0.96 | 34 | CCc1nccc2[nH]c(=O)c(-c3nc4c(C5CCOCC5)nc(Cl)cc4[nH]3)cc12.CS(=O)(=O)O [Example 127, 3-[6-chloro-4-(tetrahydro-2H-pyran-4-yl)-1H-imidazo[4,5-c]pyridin-2-yl]-5-ethyl-1,6-naphthyridin-2(1H)-one methanesulfonate] |  | 6.2 |  |  |  | 
1.8 | 36 | C[C@@H](Nc1nc(Cl)cc2[nH]c(-c3cc4c(N5CCC(N(C)C)CC5)nccc4[nH]c3=O)nc12)C(F)(F)F [Example 8, 3-(6-chloro-4-{[(2R)-1,1,1-trifluoropropan-2-yl]amino}-1H-imidazo[4,5-c]pyridin-2-yl)-5-[4-(dimethylamino)piperidin-1-yl]-1,6-naphthyridin-2(1H)-one] |  |  | 4.1 |  |  | 
0.96 | 5.1 | CS(=O)(=O)O.Cc1c(-c2nccc3[nH]c(=O)c(-c4nc5c(C6CCOCC6)nc(Cl)cc5[nH]4)cc23)c(C2CC2)nn1C(F)F [Example 153, 3-[6-chloro-4-(tetrahydro-2H-pyran-4-yl)-1H-imidazo[4,5-c]pyridin-2-yl]-5-[3-cyclopropyl-1-(difluoromethyl)-5-methyl-1H-pyrazol-4-yl]-1,6-naphthyridin-2(1H)-one methanesulfonate] |  | 6.9 |  |  |  | 
1.1 | 4 | CS(=O)(=O)O.Cc1c(-c2nccc3[nH]c(=O)c(-c4nc5c(N[C@H](C)C(F)(F)F)nc(Cl)cc5[nH]4)cc23)cnn1C [Example 152, 3-(6-chloro-4-{[(2R)-1,1,1-trifluoropropan-2-yl]amino}-1H-imidazo[4,5-c]pyridin-2-yl)-5-(1,5-dimethyl-1H-pyrazol-4-yl)-1,6-naphthyridin-2(1H)-one methanesulfonate] |  | 7.9 |  |  |  | 
1.8 | 34 | CS(=O)(=O)O.C[C@@H]1C[C@@H](F)CN1c1nc(Cl)cc2[nH]c(-c3cc4cnccc4[nH]c3=O)nc12 [Example 118, 3-{6-chloro-4-[(2R,4R)-4-fluoro-2-methylpyrrolidin-1-yl]-1H-imidazo[4,5-c]pyridin-2-yl}-1,6-naphthyridin-2(1H)-one methanesulfonate] |  | 9.1 |  |  |  | 
3.2 | 55 | CS(=O)(=O)O.Cc1nccc2[nH]c(=O)c(-c3nc4c(N5CCOC[C@H]5C)nc(Cl)cc4[nH]3)cc12 [Example 124, 3-{6-chloro-4-[(3R)-3-methylmorpholin-4-yl]-1H-imidazo[4,5-c]pyridin-2-yl}-5-methyl-1,6-naphthyridin-2(1H)-one methanesulfonate] |  | 4.6 |  |  |  | 
1.6 | 46 | CS(=O)(=O)O.Cc1nccc2[nH]c(=O)c(-c3nc4c(N5CC[C@H]5C)nc(Cl)cc4[nH]3)cc12 [Example 123, 3-{6-chloro-4-[(2R)-2-methylazetidin-1-yl]-1H-imidazo[4,5-c]pyridin-2-yl}-5-methyl-1,6-naphthyridin-2(1H)-one methanesulfonate] |  |  | 4.4 |  |  | 
4.5 | 56 | CC1(c2nccc3[nH]c(=O)c(-c4nc5c(C6CCOCC6)nc(Cl)cc5[nH]4)cc23)CC1 [Example 128, 3-[6-chloro-4-(tetrahydro-2H-pyran-4-yl)-1H-imidazo[4,5,c]pyridin-2-yl]-5-(1-methylcyclopropyl)-1,6-naphthyridin-2(1H)-one methanesulfonate] |  |  | 6.2 |  |  | 

The next lines start with the compound.

SMILES | IC50 [1] [nM] | EC50 [2] [nM] | Snhg1 fold change ([3]; 25 mg/kg oral) | Snhg1 fold change ([3]; 10 mg/kg oral) | Snhg1 fold change ([3]; 30 mg/kg oral) | Snhg1 fold change ([3]; 50 mg/kg oral) | Snhg1 fold change ([3]; 12.5 mg/kg oral) | Snhg1 fold change ([3]; 100 mg/kg oral)
Cc1nn(C(F)F)c(C)c1-c1nccc2[nH]c(=O)c(-c3nc4c(C)nc(Cl)cc4[nH]3)cc12 [Example 84, 3-(6-chloro-4-methyl-1H-imidazo[4,5-c]pyridin-2-yl)-5-[1-(difluoromethyl)-3,5-dimethyl-1H-pyrazol-4-yl]-1,6-naphthyridin-2(1H)-one] | 1 | 42 |  | 4.6 |  |  |  | 
O=c1[nH]c2ccnc(-c3ccccc3Cl)c2cc1-c1nc2cnc(Cl)cc2[nH]1 [Example 28, 3-(6-chloro-1H-imidazo[4,5-c]pyridin-2-y1)-5-(2-chlorophenyl)-1,6-naphthyridin-2(1H)-one] | 2 | 78 | 8.8 |  |  |  |  | 
Cc1nc(Cl)cc2[nH]c(-c3cc4c(-c5ccccc5Cl)nccc4[nH]c3=O)nc12 [Example 29, 3-(6-chloro-4-methyl-1H-imidazo[4,5-c]pyridin-2-y1)-5-(2-chlorophenyl)-1,6-naphthyridin-2(1H)-one] | 2 | 56 |  |  | 4.6 |  |  | 
Cc1ccccc1-c1nccc2[nH]c(=O)c(-c3nc4cnc(Cl)cc4[nH]3)cc12 [Example 32, 3-(6-chloro-1H-imidazo[4,5-c]pyridin-2-y1)-5-(2-methylpheny1)-1,6-naphthyridin-2(1H)-one] | 2.4 | 77 |  |  |  | 12 |  | 
CCc1nc(Cl)cc2[nH]c(-c3cc4c(-c5ccc(C)nc5OC)nccc4[nH]c3=O)nc12 [Example 68, 3-(6-chloro-4-ethyl-1H-imidazo[4,5-c]pyridin-2-yl)-5-(2-methoxy-6-methylpyridin-3-yl)-1,6-naphthyridin-2(1H)-one] | 0.62 | 10 |  |  | 8.3 |  |  | 
CS(=O)(=O)O.[2H]C([2H])([2H])Oc1ccccc1-c1nccc2[nH]c(=O)c(-c3nc4cnc(Cl)cc4[nH]3)cc12 [Example 133, 3-(6-chloro-1H-imidazo[4,5-c]pyridin-2-yl)-5-{2-[(2H3)methyloxy]phenyl}-1,6-naphthyridin-2(1H)-one methanesulfonate] | 2.4 | 44 |  |  |  |  | 8.2 | 
COc1cc(C(C)C)ncc1-c1nccc2[nH]c(=O)c(-c3nc4cnc(Cl)cc4[nH]3)cc12 [Example 61, 3-(6-chloro-1H-imidazo[4,5-c]pyridin-2-yl)-5-[4-methoxy-6-(propan-2-yl)pyridin-3-yl]-1,6-naphthyridin-2(1H)-one] | 1.4 | 26 |  |  |  |  |  | 4.3
CCc1nc(Cl)cc2[nH]c(-c3cc4c(-c5cnc(OC)nc5OC)nccc4[nH]c3=O)nc12 [Example 70, 3-(6-chloro-4-ethyl-1H-imidazo[4,5-c]pyridin-2-yl)-5-(2,4-dimethoxypyrimidin-5-yl)-1,6-naphthyridin-2(1H)-one] | 0.56 | 15 |  | 3.6 |  |  |  | 
